This passage reports mass density and viscosity results from the NIST ThermoML archive (doi:10.1021/je200350a).

The structures appear in SMILES notation. Numbers after ± are expanded uncertainties.

The conditions of the data set: 101.33 kPa, Liquid; for viscosity: Capillary tube (Ostwald / Ubbelohde) method.

As for `CCCCBr` [1-bromobutane], the mass density was 1279.1 ± 1.5 kg/m3 (293.15 K), 1272.2 ± 1.4 kg/m3 (298.15 K), 1265.2 ± 1.4 kg/m3 (303.15 K) and 1257.2 ± 1.4 kg/m3 (308.15 K). Also, the viscosity runs as follows: (293.15 K) 0.6473 ± 0.0064 mPa·s; (298.15 K) 0.6096 ± 0.0061 mPa·s; (303.15 K) 0.5811 ± 0.0058 mPa·s; (308.15 K) 0.55 ± 0.0056 mPa·s.

Regarding `CC1CCCCC1` [methylcyclohexane], the mass density reads like this: (293.15 K) 770.1 ± 1.2 kg/m3; (298.15 K) 766.7 ± 1.2 kg/m3; (303.15 K) 761.8 ± 1.2 kg/m3; (308.15 K) 757.6 ± 1.2 kg/m3. Further, the viscosity (293.15 K) is listed as 0.7293 ± 0.0071 mPa·s, the viscosity (298.15 K) amounted to 0.6827 ± 0.0067 mPa·s, the viscosity (303.15 K) is listed as 0.6385 ± 0.0063 mPa·s and the viscosity (308.15 K) is 0.5997 ± 0.006 mPa·s.

With `O=[N+]([O-])c1ccccc1` [nitrobenzene], the mass density is, setting by setting: (293.15 K) 1202.2 ± 1.2 kg/m3; (298.15 K) 1197.2 ± 1.2 kg/m3; (303.15 K) 1191.5 ± 1.2 kg/m3; (308.15 K) 1186.4 ± 1.2 kg/m3. The viscosity reads like this: (293.15 K) 1.983 ± 0.018 mPa·s; (298.15 K) 1.809 ± 0.016 mPa·s; (303.15 K) 1.659 ± 0.015 mPa·s; (308.15 K) 1.529 ± 0.014 mPa·s.
